Laboratory results from article PMC6789782, “Safety Pharmacological Evaluation of the Coffee Component, Caffeoylquinic Acid, and Its Metabolites, Using Ex Vivo and In Vitro Profiling Assays” (Pharmaceuticals, 2019).

Tests used:
[1] = tested on: isolated perfused guinea pig heart; test: Langendorff perfused heart assay
Procedure: After injection of heparin sodium (100 unit/body, AY Pharmaceuticals Co., Ltd.) into the jugular vein, the animals were exsanguinated. […] A stainless-steel cannula was inserted in the aorta, followed by attachment to the Langendorff apparatus (Physio-Tech Co., Ltd., Tokyo, Japan). The attached heart was perfused with KH solution at 37.0 ± 0.2 °C. Before use, the KH solution was aerated by a gas mixture (95%O2 + 5%CO2) for 30 min or longer. The perfusion pressure was maintained at 70 mmHg.
DMSO solutions at 1, 10, and 100 mM were diluted 1000-fold with the KH solution to make test solutions of 1, 10, and 100 μM, respectively. The test solutions were cumulatively applied at a flow rate of 20 mL/min for 10 min with each concentration.
An ECG signal was recorded using electrodes fixed on the ventricular apex (+), and a stainless-steel cannula was inserted in the aorta (−), and LVP was recorded from the balloon catheter placed in the left ventricle. The ECG signals were amplified with an amplifier (DAM50; World Precision Instruments, Inc.) and LVPs were monitored with a Pressure Monitor 4 (Living Systems Instrumentation). Both of the waveforms were recorded with computer software (1000 Hz; iox2 and ecgAUTO3; emka Technologies).
Before measurement, the in-balloon pressure was adjusted so that the diastolic blood pressure would be in the range of 0 to 10 mmHg. The cardiac parameters, such as HR, PR interval, QRS duration, QT interval, QTc interval (Fridericia’s formula: QTc = QT/RR^1/3), LVPSP, left-ventricular end diastolic pressure (LVEDP), and LV dP/dt max, were measured.
Data are expressed as mean (± SD). The measured % changes from the pre-application value were used for analyses. Williams test was carried out between the solvent-control and test compound. Student’s t-test was carried out between the solvent-control and positive-control. […] The data from the solvent control and drug groups were tested by F test for homogeneity of variance. F test was performed at the significance level of 5%. When the variances were homogeneous, Student’s t-test was subsequently performed. When the variances were nonhomogeneous, Welch t-test was selected.

[2] = cited from earlier work
rat hippocampal slices [3] = test: Electrophysiological assay of hippocampal slices, epileptiform discharge (ED) recording; details: ± SEM
Procedure: A hippocampal slice was placed on the multielectrode array (200 μm distant electrodes) to ensure the multi-electrode grid covered the major surface of the slice. […]
ED frequency (in Hz) was determined as follows: raw data were filtered with a Low Pass filter (Butterworth second order filter) set to 20 Hz. ED number was monitored on-line (epileptiform event amplitudes had to be higher than 15 μV to be counted; a dead time of 200 ms was applied for each epileptiform event detected). ED frequency was averaged using 30-s time intervals. Results are presented as mean frequency of ED for the last 2 min of each condition (± SEM).

rat hippocampal slices [4] = test: Electrophysiological assay of hippocampal slices, population spike (PS) recording
Procedure: All animals were housed and used in accordance with the French and European legislations for animal care. Rats (Janvier Labs, Le Genest-Saint-Isle, France) were euthanized by fast decapitation, without prior anesthesia. The brain was quickly removed and soaked in ice-cold oxygenated buffer containing KCl 2 mM, NaH2PO4 1.2 mM, MgCl2 7 mM, CaCl2 0.5 mM, NaHCO3 26 mM, glucose 11 mM, and sucrose 250 mM. […] During the experiments, slices were perfused with oxygenated artificial cerebrospinal fluid at 37 °C at a rate of 3 mL/min. The tested slice numbers were > 2 for 100 µM, > 4 for 10 µM, and > 6 for 1 µM (follow-up study). All experiments were carried out with 3-dimensional multielectrode array (Qwane Biosciences S.A., Lausanne, Switzerland) and data were recorded with a commercially available multielectrode array set-up from MultiChannel Systems (MCS GmbH, Reutlingen, Germany).
A hippocampal slice was placed on the multielectrode array (100 μm distant electrodes). One electrode was chosen to stimulate schaffer collaterals (SC) at the CA1 border. The stimulus in a monopolar biphasic current pulse (−300 μA for 60 μs followed by +300 μA for 60 μs) was applied at 30-s intervals. An Input/Output (I/O) curve was derived before each experiment to determine the stimulation intensity. Basal stimulation intensity was then set to 100 μA higher than the minimal intensity necessary to induce PS in the pyramidal cell layer.
Then, 1 μM bicuculline, the antagonist of GABAA, was applied in the continuous presence of the compound for an additional 40-min. Control bicuculline slices were recorded in parallel and after 50 min of control recording, 1 μM bicuculline was applied for a 40-min period.
Normalized PS AUC was averaged by slices for each experiment carried out in the same conditions. PS AUC (± SEM) is expressed as a function of time. The number of PS oscillations induced at the end of the bicuculline-exposure period was determined for each electrode and averaged by slices. The results are presented as mean of the last 2 min of application. Statistical significance was measured using two-way ANOVA analysis with Sidak’s multiple comparisons test, except for the 100 µM concentration because of its small slice number.

peristaltic movement = tested on: peristaltic movement; parameters: method as in earlier work; details: ref review reports on the Pharmaceuticals and Medical Devices Agency website; cited from earlier work
[5] = laboratory background data of drugs, n = 3
[6] = within the existing concentration range of each drug, laboratory background data

SMILES	Lowest concentration indicating statistically significant % change to solvent control, HR [1, 5] [µM]	Lowest concentration indicating statistically significant % change to solvent control, LV dP/dtmax [1, 5] [µM]	Lowest concentration indicating statistically significant % change to solvent control, LVPSP [1, 5] [µM]	Lowest concentration indicating statistically significant % change to solvent control, PR [1, 5] [µM]	Lowest concentration indicating statistically significant % change to solvent control, QRS [1, 5] [µM]	Maximum % change in LV dP/dt max [1, 6] [%]	Lowest concentration indicating statistically significant % change to solvent control, QT [1, 5] [µM]	Lowest concentration indicating statistically significant % change to solvent control, QTc [1, 5] [µM]	EfTPC (effective free therapeutic plasma concentration) [2]	also measured
Nc1ccncc1 [4-AP, 4-aminopyridine, reference compound]										ED rate (rat hippocampal slices [3]; 4-AP control slices (4-AP alone)): 0.38 ± 0.02 Hz; ED rate (rat hippocampal slices [3]; follow-up test, 4-AP control slices): 0.38 ± 0.04 Hz
CN1CCc2cc3c(cc2[C@H]1[C@@H]1OC(=O)c2c1ccc1c2OCO1)OCO3 [bicuculline, reference compound]										Additional spike number (rat hippocampal slices [4]; 1 μM alone, single stimulation, control slices): 1.32 ± 0.32; Additional spike number (rat hippocampal slices [4]; follow-up test, 1 μM bicuculline control slices): 1.47 ± 0.18
Nc1nnc(-c2cccc(Cl)c2Cl)c(N)n1 [Lamotrigine]										Concentration at which peristaltic movement was reduced (peristaltic movement): 300 nM
COc1c(N2C[C@@H]3CCCN[C@@H]3C2)c(F)cc2c(=O)c(C(=O)O)cn(C3CC3)c12 [Moxifloxacin]	30	100	3	30	10		3	3	10.960 [26] µM	Maximum % change in QT interval [1, 6]: 29.3%
CN(CCOc1ccc(NS(C)(=O)=O)cc1)CCc1ccc(NS(C)(=O)=O)cc1 [Dofetilide]	0.001		0.03	0.01			0.001	0.001		Maximum % change in QT interval [1, 6]: 33.5%
C=C[C@H]1C[N@@]2CC[C@H]1C[C@H]2[C@H](O)c1ccnc2ccc(OC)cc12 [Quinine]	1	1	1	3	3	−77.3	1	1	21.577 [25] µM	Lowest concentration indicating statistically significant % change to solvent control, LVEDP [1, 5]: 30 µM

Now from value to compound, other results behind:

Lowest concentration indicating statistically significant % change to solvent control, HR [1, 5] [µM]	Lowest concentration indicating statistically significant % change to solvent control, LV dP/dtmax [1, 5] [µM]	Lowest concentration indicating statistically significant % change to solvent control, LVPSP [1, 5] [µM]	Lowest concentration indicating statistically significant % change to solvent control, PR [1, 5] [µM]	Lowest concentration indicating statistically significant % change to solvent control, QRS [1, 5] [µM]	Maximum % change in LV dP/dt max [1, 6] [%]	SMILES	Lowest concentration indicating statistically significant % change to solvent control, QT [1, 5] [µM]	Lowest concentration indicating statistically significant % change to solvent control, QTc [1, 5] [µM]	EfTPC (effective free therapeutic plasma concentration) [2]	also measured
1	1	1	10	10	−47.4	Cc1nccn1CC1CCc2c(c3ccccc3n2C)C1=O (stereo not shown) [Ondansetron]	1	1	1.023 [25] µM	Lowest concentration indicating statistically significant % change to solvent control, LVEDP [1, 5]: 1 µM
1		1	1	3		O=C(O[C@@H]1C[C@@H]2C[C@H]3C[C@H](C1)N2CC3=O)c1c[nH]c2ccccc12 [Dolasetron]				Lowest concentration indicating statistically significant % change to solvent control, LV dP/dtmax ([1]; Hartley, guinea pig): 1 µM; Lowest concentration indicating statistically significant % change to solvent control, QT ([1]; Hartley, guinea pig): 1 µM; Lowest concentration indicating statistically significant % change to solvent control, QTc ([1]; Hartley, guinea pig): 1 µM; Maximum % change in PR interval [1, 6]: 106.9%
					−21.8	O=C(O)COCCN1CCN([C@H](c2ccccc2)c2ccc(Cl)cc2)CC1 [Levocetirizine]				
